Results published in patent publication US10131652B2, “Pyrimidinyloxy benzene derivatives as herbicides” (E. I. DU PONT DE NEMOURS AND COMPANY, priority 2014, dated 2018).

How the values were obtained:
Assay type in all cases: in vivo
[1] = tested on: barnyardgrass (Echinochloa crus-galli); assay: Test C flooded paddy test plant response; details: Flood, 250 g ai/ha, scale of 0 to 100 where 0 is no effect and 100 is complete control, 13 to 15 days
In short: (§1)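 2-leaf plants; flood 3 cm, cpd into paddy water; greenhouse 13–15 d; visual score vs untreated, 0 = no effect, 100 = complete control; dash = no result.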

[2] = tested on: ducksalad (Heteranthera limosa); assay: Test C flooded paddy test plant response; details: Flood, 250 g ai/ha, scale of 0 to 100 where 0 is no effect and 100 is complete control, 13 to 15 days
In short: as §1

[3] = tested on: rice (Oryza sativa); assay: Test C flooded paddy test plant response; details: Flood, 250 g ai/ha, scale of 0 to 100 where 0 is no effect and 100 is complete control, 13 to 15 days
In short: as §1

[4] = tested on: small-flower umbrella sedge (Cyperus difformis); assay: Test C flooded paddy test plant response; details: Flood, 250 g ai/ha, scale of 0 to 100 where 0 is no effect and 100 is complete control, 13 to 15 days
In short: as §1

[5] = tested on: johnsongrass (Sorghum halepense); assay: Test D pre-/postemergence plant response; details: Preemergence
In short: (§2)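 Seeds were planted in a loam and sand blend and sprayed preemergence. In parallel, seedlings grown in peat moss/vermiculite medium were sprayed postemergence at 2 to 18 cm height. Both used a surfactant-containing non-phytotoxic solvent. Greenhouse ratings at 13 to 15 days used a 0–100 control scale.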

[6] = tested on: large (Lg) crabgrass (Digitaria sanguinalis); assay: Test D pre-/postemergence plant response; details: Preemergence
In short: as §2

[7] = tested on: oilseed rape (Brassica napus); assay: Test D pre-/postemergence plant response; details: Preemergence
In short: as §2

[8] = tested on: soybean (Glycine max); assay: Test D pre-/postemergence plant response; details: Preemergence
In short: as §2

[9] = tested on: velvetleaf (Abutilon theophrasti); assay: Test D pre-/postemergence plant response; details: Preemergence
In short: as §2

[10] = tested on: winter wheat (Triticum aestivum); assay: Test D pre-/postemergence plant response; details: Preemergence
In short: as §2

[11] = tested on: yellow nutsedge (Cyperus esculentus); assay: Test D pre-/postemergence plant response; details: Preemergence
In short: as §2

[12] = 16 g ai/ha, scale 0 to 100 (0 no effect, 100 complete control)
[13] = 31 g ai/ha, scale 0 to 100 (0 no effect, 100 complete control)
[14] = 62 g ai/ha, scale 0 to 100 (0 no effect, 100 complete control)

COc1cccc(Oc2ncc(Cl)cn2)c1-c1cc(C(F)(F)F)no1 [Compound 104]
Barnyardgrass plant response rating [1]: 20
Ducksalad plant response rating [2]: 75
Rice plant response rating [3]: 0
Sedge, Umbrella plant response rating [4]: 80
Plant response rating (scale 0 to 100), Johnsongrass ([5]; 125 g ai/ha): 65
Plant response rating, Johnsongrass [5, 12]: 5
Plant response rating, Johnsongrass [5, 13]: 20
Plant response rating, Johnsongrass [5, 14]: 15
Plant response rating (scale 0 to 100), Crabgrass, Large ([6]; 125 g ai/ha): 100
Plant response rating, Crabgrass, Large [6, 12]: 65
Plant response rating, Crabgrass, Large [6, 13]: 85
Plant response rating, Crabgrass, Large [6, 14]: 98
Plant response rating (scale 0 to 100), Oilseed Rape ([7]; 125 g ai/ha): 50
Plant response rating, Oilseed Rape [7, 12]: 0
Plant response rating, Oilseed Rape [7, 13]: 0
Plant response rating, Oilseed Rape [7, 14]: 30
Plant response rating (scale 0 to 100), Soybean ([8]; 125 g ai/ha): 25
Plant response rating, Soybean [8, 12]: 10
Plant response rating, Soybean [8, 13]: 20
Plant response rating, Soybean [8, 14]: 25
Plant response rating (scale 0 to 100), Velvetleaf ([9]; 125 g ai/ha): 65
Plant response rating, Velvetleaf [9, 12]: 25
Plant response rating, Velvetleaf [9, 13]: 50
Plant response rating, Velvetleaf [9, 14]: 70
Plant response rating (scale 0 to 100), Wheat ([10]; 125 g ai/ha): 5
Plant response rating, Wheat [10, 12]: 0
Plant response rating, Wheat [10, 13]: 0
Plant response rating, Wheat [10, 14]: 5
Plant response rating (scale 0 to 100), Nutsedge, Yellow ([11]; 125 g ai/ha): 0
Plant response rating, Nutsedge, Yellow [11, 12]: 0
Plant response rating, Nutsedge, Yellow [11, 13]: 0
Plant response rating, Nutsedge, Yellow [11, 14]: 0

N#Cc1cccc(Oc2ncc(Cl)cn2)c1-c1cc(C(F)(F)F)ccn1 [Compound 158, 5-chloro-2-[3-cyano-2-[4-(trifluoromethyl)-2-pyridinyl]phenoxy]pyrimidine]
pest or weed control at 250 g/ha ([1]; Echinochloa crus-galli, read-out: Barnyardgrass plant response rating): 0%
pest or weed control at 250 g/ha ([2]; Heteranthera limosa, read-out: Ducksalad plant response rating): 50%
plant injury at 250 g/ha ([3]; Oryza sativa, read-out: Rice plant response rating): 0%
pest or weed control at 250 g/ha ([4]; Cyperus difformis, read-out: Sedge, Umbrella plant response rating): 0%
pest or weed control at 125 g/ha ([5]; Sorghum halepense, pre-emergence, 125 g ai/ha, read-out: Plant response rating (scale 0 to 100), Johnsongrass): 40%
pest or weed control at 16 g/ha ([5]; Sorghum halepense, pre-emergence, 16 g ai/ha, scale 0 to 100 (0 no effect, 100 complete control), read-out: Plant response rating, Johnsongrass): 0%
pest or weed control at 31 g/ha ([5]; Sorghum halepense, pre-emergence, 31 g ai/ha, scale 0 to 100 (0 no effect, 100 complete control), read-out: Plant response rating, Johnsongrass): 0%
pest or weed control at 62 g/ha ([5]; Sorghum halepense, pre-emergence, 62 g ai/ha, scale 0 to 100 (0 no effect, 100 complete control), read-out: Plant response rating, Johnsongrass): 10%
pest or weed control at 125 g/ha ([6]; Digitaria sanguinalis, pre-emergence, 125 g ai/ha, read-out: Plant response rating (scale 0 to 100), Crabgrass, Large): 100%
pest or weed control at 16 g/ha ([6]; Digitaria sanguinalis, pre-emergence, 16 g ai/ha, scale 0 to 100 (0 no effect, 100 complete control), read-out: Plant response rating, Crabgrass, Large): 25%
pest or weed control at 31 g/ha ([6]; Digitaria sanguinalis, pre-emergence, 31 g ai/ha, scale 0 to 100 (0 no effect, 100 complete control), read-out: Plant response rating, Crabgrass, Large): 90%
pest or weed control at 62 g/ha ([6]; Digitaria sanguinalis, pre-emergence, 62 g ai/ha, scale 0 to 100 (0 no effect, 100 complete control), read-out: Plant response rating, Crabgrass, Large): 85%
plant injury at 125 g/ha ([7]; Brassica napus, pre-emergence, 125 g ai/ha, read-out: Plant response rating (scale 0 to 100), Oilseed Rape): 98%
plant injury at 16 g/ha ([7]; Brassica napus, pre-emergence, 16 g ai/ha, scale 0 to 100 (0 no effect, 100 complete control), read-out: Plant response rating, Oilseed Rape): 40%
plant injury at 31 g/ha ([7]; Brassica napus, pre-emergence, 31 g ai/ha, scale 0 to 100 (0 no effect, 100 complete control), read-out: Plant response rating, Oilseed Rape): 50%
plant injury at 62 g/ha ([7]; Brassica napus, pre-emergence, 62 g ai/ha, scale 0 to 100 (0 no effect, 100 complete control), read-out: Plant response rating, Oilseed Rape): 90%
plant injury at 125 g/ha ([8]; Glycine max, pre-emergence, 125 g ai/ha, read-out: Plant response rating (scale 0 to 100), Soybean): 95%
plant injury at 16 g/ha ([8]; Glycine max, pre-emergence, 16 g ai/ha, scale 0 to 100 (0 no effect, 100 complete control), read-out: Plant response rating, Soybean): 0%
plant injury at 31 g/ha ([8]; Glycine max, pre-emergence, 31 g ai/ha, scale 0 to 100 (0 no effect, 100 complete control), read-out: Plant response rating, Soybean): 25%
plant injury at 62 g/ha ([8]; Glycine max, pre-emergence, 62 g ai/ha, scale 0 to 100 (0 no effect, 100 complete control), read-out: Plant response rating, Soybean): 45%
pest or weed control at 125 g/ha ([9]; Abutilon theophrasti, pre-emergence, 125 g ai/ha, read-out: Plant response rating (scale 0 to 100), Velvetleaf): 70%
pest or weed control at 16 g/ha ([9]; Abutilon theophrasti, pre-emergence, 16 g ai/ha, scale 0 to 100 (0 no effect, 100 complete control), read-out: Plant response rating, Velvetleaf): 35%
pest or weed control at 31 g/ha ([9]; Abutilon theophrasti, pre-emergence, 31 g ai/ha, scale 0 to 100 (0 no effect, 100 complete control), read-out: Plant response rating, Velvetleaf): 25%
pest or weed control at 62 g/ha ([9]; Abutilon theophrasti, pre-emergence, 62 g ai/ha, scale 0 to 100 (0 no effect, 100 complete control), read-out: Plant response rating, Velvetleaf): 40%
plant injury at 125 g/ha ([10]; Triticum aestivum, pre-emergence, 125 g ai/ha, read-out: Plant response rating (scale 0 to 100), Wheat): 0%
plant injury at 16 g/ha ([10]; Triticum aestivum, pre-emergence, 16 g ai/ha, scale 0 to 100 (0 no effect, 100 complete control), read-out: Plant response rating, Wheat): 0%
plant injury at 31 g/ha ([10]; Triticum aestivum, pre-emergence, 31 g ai/ha, scale 0 to 100 (0 no effect, 100 complete control), read-out: Plant response rating, Wheat): 0%
plant injury at 62 g/ha ([10]; Triticum aestivum, pre-emergence, 62 g ai/ha, scale 0 to 100 (0 no effect, 100 complete control), read-out: Plant response rating, Wheat): 0%
pest or weed control at 125 g/ha ([11]; Cyperus, pre-emergence, 125 g ai/ha, read-out: Plant response rating (scale 0 to 100), Nutsedge, Yellow): 5%
pest or weed control at 16 g/ha ([11]; Cyperus, pre-emergence, 16 g ai/ha, scale 0 to 100 (0 no effect, 100 complete control), read-out: Plant response rating, Nutsedge, Yellow): 0%
pest or weed control at 31 g/ha ([11]; Cyperus, pre-emergence, 31 g ai/ha, scale 0 to 100 (0 no effect, 100 complete control), read-out: Plant response rating, Nutsedge, Yellow): 0%
pest or weed control at 62 g/ha ([11]; Cyperus, pre-emergence, 62 g ai/ha, scale 0 to 100 (0 no effect, 100 complete control), read-out: Plant response rating, Nutsedge, Yellow): 5%
